Data published in US6747149B2, “Glucamine salts for treating hepatitis virus infections” (G. D. Searle & Co., priority 1999, dated 2004).
Like-named read-outs stand apart in the source and are kept apart here. Marks after values point to notes of the source that are not given here.

Legend:
Hepatitis B Virus = assay: Hepatitis B virus secretion by chronically HBV secreting HepG2.2.15 cells (immunoprecipitated virion DNA, PCR); type: cell-based; settings: for [] for 90% HBV secretion inhibition: based upon duplicate PCR results; for Relative amount of HBV secreted As A % of Control: 3 days, preS1 immunoprecipitation, PCR
Procedure: (§1) The anti-hepatitis B virus activity and effect on cell viability of a number of different N-substituted-1,5-dideoxy-1,5-imino-D-glucitol compounds were assessed using an in vitro assay employing chronically hepatitis B virus secreting HepG2.2.15 cells. The method employed was essentially that described in Block et al. (1994) Proc. Natl. Acad. Sci. USA 91:2235-2239.

HepG2.2.15 Cells [1] = assay: Viability of HepG2.2.15 cells, trypan blue exclusion; type: cell-based; settings: 3 days, cells excluding trypan blue
Procedure: as §1

HBV = assay: Cell culture experiments with N-nonyl-DNJ: total HBV DNA and immune precipitated DNA; type: cell-based, hepatitis B virus
Text: (§2) There are two measures of drug efficacy: reduction in total HBV DNA (measured by quantitative PCR), and reduction in HBV DNA from capsids with intact surface glycoproteins, which is the active form of the virus (measured by an ELISA-like immune precipitation assay followed by quantitative PCR).

[2] = system: woodchuck hepatitis virus (WHV); assay: Woodchuck model, N-nonyl-DNJ alone, BID oral dosing; type: in vivo
Text: In order to evaluate the efficacy of N-nonyl-DNJ in combination with 3TC (or other nucleoside or nucleotide analogs) against Hepatitis B virus in a woodchuck animal model, an monotherapy experiment using N-nonyl-DNJ alone was first conducted. This was necessary to determine if N-nonyl-DNJ has any anti-HBV effect in the woodchuck and, if N-nonyl-DNJ has a beneficial effect, to design a combination study based on the dose-response relationship of this drug alone.
Therefore, five groups of four animals each (all groups had both sexes, all but the control had two of each sex) were assigned to 0, 12.5, 25, 50, and 100 mg/kg/day with BID oral dosing. These were lab-reared wild animals. All animals were infected with woodchuck hepatitis virus (WHV) as neonates, and had been tested positive on serological tests for WHV surface antigen. Blood samples were drawn one week prior to dosing (−1 week), immediately before dosing (0 weeks), weekly during dosing (1, 2, 3, and 4 weeks), and after the end of dosing (5, 6, 8, and 10 weeks).
as §2
Before models are fitted to the data, a log transform was applied because: 1) the variation in IPDNA increases with increasing IPDNA values; the log transformation gives values with a nearly constant variation, and 2) it is expected that drug effects will appear as a constant multiplier of the IPDNA level. Because there are zero values of IPDNA, a small value (about ½ of the smallest non-zero value) was added to all values before the log transform.
Two approaches were used to model the changes in slope to week with dose of N-nonyl-DNJ: a linear modeling approach and a nonlinear model. Both approaches assume that the (linear) rate of change of the Log(IPDNA) measure over the dosing period is the “right” measure to reflect the effect of the drug on the virus. Both approaches are fit in stages, and the first stage is common to both approaches. First, a simple straight line regression model is fit using weeks 0-4 to predict log(IPDNA_+—10) separately for each animal by run combination. In the second stage, the response variable is the slope fitted in the first stage.
For the linear approach, a model is fit with slope to week as the response where run is considered a block, dose has a significant effect (almost all of this effect is due to a slope to dose), and the relevant error for testing the effect of dose is the variation among animals treated alike (after the adjustment for the runs as blocks). This is similar to using the calibration data within each run to first adjust each run's data to a common virus DNA concentration; the difference is that here the data from the woodchucks are used for the run adjustment rather than only the calibration data.
For the nonlinear approach, a four parameter logistic model is fit with the slope to week as the response and the dose as the predictor. Again, run is considered a block, but because no run has all weeks, it is not possible to fully reflect the blocking in the nonlinear approach. […]

HepG2.2.15 Cells [3] = assay: MTT-based colorimetric assay of cell viability
Procedure: as §1

CCCCN1C[C@H](OC(C)=O)[C@@H](OC(C)=O)[C@H](OC(C)=O)[C@H]1COC(C)=O [Example 2, 1,5-(Butylimino)-1,5-dideoxy-D-glucitol, Tetraacetate] was tested, and the “[] for 90% HBV secretion inhibition” value (Hepatitis B Virus) was >200*s* microgs per ml, the “Relative amount of HBV secreted As A % of Control” value (Hepatitis B Virus; concentration [200]) was 107.0 +/− 12 (n = 3) % and the “Relative amount of HBV secreted As A % of Control” value (Hepatitis B Virus; concentration [1000]) was 38.0 +/− 15 (n = 3) %. For the same compound, the “% Viable +/− 1 S.D.” value (HepG2.2.15 Cells [1]; concentration [200]) was 90 +/− 6 (n = 4) % and the “% Viable +/− 1 S.D.” value (HepG2.2.15 Cells [1]; concentration [1000]) was 89 +/− 4 (n = 4) %.

With CCCCCCCCCN1C[C@H](O)[C@@H](O)[C@H](O)[C@H]1CO [N-nonyl-DNJ, N-(n-nonyl)-1,5-dideoxy-1,5-imino-D-glucitol] the “effect on the immune precipitated DNA (IPDNA)” value (HBV) was “marked effect”, the “effect on total HBV DNA” value (HBV) was “little or no effect” and the “effect on total HBV DNA measurements” value ([2]; all dose levels, pre-dose and dosed portions, quantitative PCR) was “no effect”. The “average minimum slope observed” value ([2]; decrease of IPDNA, dosing weeks 0-4) was 0.31 fewer Log(IPDNA g/mL)/week, the “decrease of IPDNA at average minimum slope” value ([2]; dosing weeks 0-4) was “about 25 %/week” and the “slope of IPDNA levels over the dosing period due to dose or plasma level” value ([2]; weeks 0-4, straight line fitted per animal) was “significant difference in the slope”. The “approximate effective monotherapy dose” value ([2]; woodchucks) was “about 16 mg/kg/day”.

CCCCN1C[C@H](O)[C@@H](O)[C@H](O)[C@H]1CO [NBDNJ, N-(n-butyl-)-1,5-dideoxy-1,5-imino-D-glucitol] was tested, and the “[] for 90% HBV secretion inhibition” value (Hepatitis B Virus) was 0.5-1.0* microgs per ml, the “Relative amount of HBV secreted As A % of Control” value (Hepatitis B Virus; concentration [200]) was 37.0 +/− 13 (n = 15) % and the “Relative amount of HBV secreted As A % of Control” value (Hepatitis B Virus; concentration [200], listed as 1) was 85.0 +/− 5 (n = 8) %. The “Relative amount of HBV secreted As A % of Control” value (Hepatitis B Virus; concentration [1000]) was 3.2 +/− 5 (n = 15) %, the “Relative amount of HBV secreted As A % of Control” value (Hepatitis B Virus; concentration [1000], listed as 1) was 35.0 +/− 6 (n = 8) % and the “[] for a 50% reduction in MMT” value (HepG2.2.15 Cells [3]) was 100-200 microgs per ml.

For “N-[2-(4-Trifluoromethylphenyl)-ethyl]-glucamine [Example 7]”, the “[] for 90% HBV secretion inhibition” value (Hepatitis B Virus) was >200** microgs per ml and the “[] for a 50% reduction in MMT” value (HepG2.2.15 Cells [3]; HepG2.2.15 cells) was over 200 microgs per ml.
